Measurements: patent US20180244611A1, “Modulators of the Cystic Fibrosis Transmembrane Conductance Regulator Protein and Methods of Use” (AbbVie S.à.r.l., priority 2017, published 2018)

How the values were obtained:
F508delCFTR [1] = biological target: T1, F508delCFTR (Homo sapiens, UniProt P13569, DEL508-508); assay: Cell Surface Expression-Horse Radish Peroxidase (CSE-HRP) assay, test compound without co-corrector; assay type: cell-based; conditions: for Emax: maximum at any tested concentration, normalized to positive control, without co-corrector; for EC50: test compound without co-corrector;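 on Emax: percent of on-plate 2 µM positive control corrector response over DMSO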
T1 construct: expressed in transfected cells; host or cells: CFBE41o- human lung-derived epithelial cells (CFBE41o-F508delCFTR-HRP), doxycycline-inducible
T1 sequence (P13569 with tags, fused parts or gaps DEL508-508): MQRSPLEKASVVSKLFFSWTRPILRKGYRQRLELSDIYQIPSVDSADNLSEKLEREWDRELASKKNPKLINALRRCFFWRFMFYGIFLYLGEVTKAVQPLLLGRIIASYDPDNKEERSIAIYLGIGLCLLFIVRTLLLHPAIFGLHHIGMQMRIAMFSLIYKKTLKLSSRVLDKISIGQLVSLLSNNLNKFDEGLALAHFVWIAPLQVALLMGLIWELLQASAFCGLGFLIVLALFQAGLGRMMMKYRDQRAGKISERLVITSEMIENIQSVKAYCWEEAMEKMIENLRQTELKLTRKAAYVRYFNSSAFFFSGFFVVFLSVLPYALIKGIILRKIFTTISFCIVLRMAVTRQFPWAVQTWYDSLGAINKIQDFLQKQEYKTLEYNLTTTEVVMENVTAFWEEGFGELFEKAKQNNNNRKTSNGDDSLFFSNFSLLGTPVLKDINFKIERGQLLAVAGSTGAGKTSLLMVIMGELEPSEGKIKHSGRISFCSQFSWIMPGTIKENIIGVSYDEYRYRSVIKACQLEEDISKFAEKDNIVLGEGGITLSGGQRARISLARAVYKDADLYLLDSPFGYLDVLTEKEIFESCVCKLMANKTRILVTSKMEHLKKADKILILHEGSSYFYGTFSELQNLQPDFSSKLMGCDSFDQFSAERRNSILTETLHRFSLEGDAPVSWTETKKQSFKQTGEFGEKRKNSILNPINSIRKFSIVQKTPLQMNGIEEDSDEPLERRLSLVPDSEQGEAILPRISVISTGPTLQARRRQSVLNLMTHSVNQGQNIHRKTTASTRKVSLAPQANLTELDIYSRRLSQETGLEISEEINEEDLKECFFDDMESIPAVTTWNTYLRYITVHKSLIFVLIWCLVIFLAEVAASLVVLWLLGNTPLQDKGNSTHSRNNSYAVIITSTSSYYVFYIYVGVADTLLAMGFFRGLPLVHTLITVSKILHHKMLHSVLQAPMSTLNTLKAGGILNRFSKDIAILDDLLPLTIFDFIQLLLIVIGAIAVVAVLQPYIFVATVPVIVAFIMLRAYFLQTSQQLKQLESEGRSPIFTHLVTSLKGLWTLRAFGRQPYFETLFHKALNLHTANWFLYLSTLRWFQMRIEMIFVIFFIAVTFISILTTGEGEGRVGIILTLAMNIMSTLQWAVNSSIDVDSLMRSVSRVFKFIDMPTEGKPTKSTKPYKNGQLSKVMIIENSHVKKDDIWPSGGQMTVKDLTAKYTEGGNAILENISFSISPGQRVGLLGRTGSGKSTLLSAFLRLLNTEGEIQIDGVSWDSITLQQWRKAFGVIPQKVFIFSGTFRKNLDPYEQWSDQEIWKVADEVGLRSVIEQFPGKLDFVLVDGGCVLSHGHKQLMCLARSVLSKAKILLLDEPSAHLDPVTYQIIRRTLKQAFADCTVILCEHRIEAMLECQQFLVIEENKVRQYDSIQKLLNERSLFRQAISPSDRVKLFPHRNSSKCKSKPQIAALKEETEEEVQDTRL
In short: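 CFBE41o- cells expressing F508delCFTR with HRP in the fourth exofacial loop, induced with 0.5 μg/mL doxycycline for 72 h at 37° C, then exposed to compound alone for 18-24 h at 33° C, 8-point 3-fold series from 20 μM. Surface HRP read by luminol luminescence, normalized to positive corrector control versus DMSO; EC50 from variable-slope sigmoidal fit of three replicate plates.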

F508delCFTR [2] = biological target: T1, F508delCFTR; assay: Cell Surface Expression-Horse Radish Peroxidase (CSE-HRP) assay, test compound with co-corrector; assay type: cell-based; conditions: with 2 μM co-corrector; for Maximum % activity (with co-corrector): maximum at any tested concentration, normalized to positive control;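 on Maximum % activity (with co-corrector): percent of 2 µM positive control corrector over DMSO; co-corrector is that same compound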
In short: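 CFBE41o- cells expressing F508delCFTR with HRP in the fourth exofacial loop, induced with 0.5 μg/mL doxycycline for 72 h, then treated 18-24 h at 33° C. with compound (8 points, top 20 μM, 3-fold) plus 2 μM co-corrector. Surface HRP read by luminol luminescence; activity normalised to positive control, EC50 from variable-slope sigmoidal fit.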

| Structure (SMILES) | Emax (F508delCFTR [1]) [%] | EC50 (F508delCFTR [1]) [µM] | Maximum % activity (with co-corrector) (F508delCFTR [2]) | EC50 (F508delCFTR [2]) [µM] |
| --- | --- | --- | --- | --- |
| CCC1(C(=O)NS(=O)(=O)c2ccccc2C)CCc2c(Cl)cccc21 (stereo not drawn) [II-32] | < 50 | < 3 | ++ (≥150 and <350) | < 3 |
| COc1ccc2c(c1)CC[C@@]2(C)C(=O)NS(=O)(=O)c1cccc2ccccc12 [II-44] | 50 to 150 | 3 to 10 | +++ (≥350) | 3 to 10 |
| COc1ccc2c(c1)CC[C@]2(C)C(=O)NS(=O)(=O)c1cccc2ccccc12 [II-45] | ≥ 150 | 3 to 10 | +++ (≥350) | 3 to 10 |
| COc1cccc2c1CC[C@]2(C)C(=O)NS(=O)(=O)c1cccc2ccccc12 [II-46] | 50 to 150 | 3 to 10 | +++ (≥350) | 3 to 10 |
| CC1(C(=O)NS(=O)(=O)c2cccc3ccccc23)CCc2ccc(OC(F)(F)F)cc21 (stereo not drawn) [II-49] | ≥ 150 | 3 to 10 | +++ (≥350) | < 3 |
| O=C(NS(=O)(=O)c1cccc2ccccc12)C1CCCc2c(O)ccc(Br)c21 (stereo not drawn) [II-50] | < 50 | 3 to 10 | ++ (≥150 and <350) | 3 to 10 |
| O=C(NS(=O)(=O)c1cccc2ccccc12)C1CCCc2c1ccc1c2OCCO1 (stereo not drawn) [II-52] | 50 to 150 | 3 to 10 | +++ (≥350) | 3 to 10 |
| COc1cc2c(cc1OC)C(C(=O)NS(=O)(=O)c1cccc3ccccc13)CCC2 (stereo not drawn) [II-53] | 50 to 150 | 3 to 10 | +++ (≥350) | 3 to 10 |
| CCC1(C(=O)NS(=O)(=O)c2ccccc2Cl)CCc2c(Cl)cccc21 (stereo not drawn) [II-54] | < 50 | < 3 | ++ (≥150 and <350) | < 3 |
| CCC1(C(=O)NS(=O)(=O)c2cc(C)ccc2C(C)C)CCc2c(Cl)cccc21 (stereo not drawn) [II-56] | < 50 | < 3 | ++ (≥150 and <350) | < 3 |
| CCC1(C(=O)NS(=O)(=O)c2cccc(Cl)c2COC)CCc2c(Cl)cccc21 (stereo not drawn) [II-57] | < 50 | < 3 | ++ (≥150 and <350) | < 3 |
| CCC1(C(=O)NS(=O)(=O)c2ccccc2F)CCc2c(Cl)cccc21 (stereo not drawn) [II-58] | < 50 | < 3 | ++ (≥150 and <350) | < 3 |
| CCC1(C(=O)NS(=O)(=O)c2ccccc2Oc2ccccc2)CCc2c(Cl)cccc21 (stereo not drawn) [II-59] | < 50 | < 3 | ++ (≥150 and <350) | < 3 |
| CCC1(C(=O)NS(=O)(=O)c2ccccc2OC(F)(F)F)CCc2c(Cl)cccc21 (stereo not drawn) [II-60] | < 50 | ≥ 10 | + (<150) | ≥ 10 |
| CCC1(C(=O)NS(=O)(=O)c2ccccc2OC(F)F)CCc2c(Cl)cccc21 (stereo not drawn) [II-61] | < 50 | ≥ 10 | + (<150) | ≥ 10 |
| CCC1(C(=O)NS(=O)(=O)c2cc(C)ccc2C)CCc2c(Cl)cccc21 (stereo not drawn) [II-62] | < 50 | ≥ 10 | + (<150) | ≥ 10 |
| CCC1(C(=O)NS(=O)(=O)c2ccccc2OCCOC)CCc2c(Cl)cccc21 (stereo not drawn) [II-63] | < 50 | < 3 | ++ (≥150 and <350) | < 3 |
| CCC1(C(=O)NS(=O)(=O)c2ccccc2-c2ccccc2)CCc2c(Cl)cccc21 (stereo not drawn) [II-64] | < 50 | < 3 | ++ (≥150 and <350) | < 3 |
| CCC1(C(=O)NS(=O)(=O)c2ccc3ccccc3c2)CCc2c(Cl)cccc21 (stereo not drawn) [II-65] | < 50 | 3 to 10 | ++ (≥150 and <350) | 3 to 10 |
| CCC1(C(=O)NS(=O)(=O)c2ccccc2)CCc2c(Cl)cccc21 (stereo not drawn) [II-66] | 50 to 150 | < 3 | ++ (≥150 and <350) | < 3 |
| CCC1(C(=O)NS(=O)(=O)c2cccc3nsnc23)CCc2c(Cl)cccc21 (stereo not drawn) [II-67] | < 50 | ≥ 10 | + (<150) | ≥ 10 |
| O=C(NS(=O)(=O)c1cccc2ccccc12)C1(CC2CCOC2)CCc2c(Cl)cccc21 (stereo not drawn) [II-69] | 50 to 150 | < 3 | +++ (≥350) | < 3 |
| O=C(NS(=O)(=O)c1cccc2ccccc12)C1(CCn2cccn2)CCc2c(Cl)cccc21 (stereo not drawn) [II-70] | 50 to 150 | < 3 | ++ (≥150 and <350) | < 3 |
| COc1cc(CC2(C(=O)NS(=O)(=O)c3cccc4ccccc34)CCc3c(Cl)cccc32)ccn1 (stereo not drawn) [II-72] | 50 to 150 | < 3 | ++ (≥150 and <350) | < 3 |
| CCC1(C(=O)NS(=O)(=O)c2cccc3c2OCCO3)CCc2c(Cl)cccc21 (stereo not drawn) [II-74] | < 50 | ≥ 10 | + (<150) | ≥ 10 |

Now from value to molecule:

| Emax (F508delCFTR [1]) [%] | EC50 (F508delCFTR [1]) [µM] | Maximum % activity (with co-corrector) (F508delCFTR [2]) | EC50 (F508delCFTR [2]) [µM] | Structure (SMILES) |
| --- | --- | --- | --- | --- |
| < 50 | ≥ 10 | ++ (≥150 and <350) | 3 to 10 | O=C(NS(=O)(=O)c1cccc(Cl)c1)C1CCc2c(Cl)cccc21 (stereo not drawn) [II-26] |
| < 50 | ≥ 10 | ++ (≥150 and <350) | 3 to 10 | O=C(NS(=O)(=O)c1ccc(Cl)cc1)C1CCc2c(Cl)cccc21 (stereo not drawn) [II-27] |
| < 50 | 3 to 10 | ++ (≥150 and <350) | 3 to 10 | O=C(NS(=O)(=O)c1ccccc1F)C1CCc2c(Cl)cccc21 (stereo not drawn) [II-28] |
| < 50 | 3 to 10 | ++ (≥150 and <350) | 3 to 10 | COc1cccc2c1CCC2C(=O)NS(=O)(=O)c1ccccc1Cl (stereo not drawn) [II-30] |
| < 50 | 3 to 10 | ++ (≥150 and <350) | 3 to 10 | COc1cccc2c1CCC2C(=O)NS(=O)(=O)c1ccccc1[N+](=O)[O-] (stereo not drawn) [II-31] |
| 50 to 150 | 3 to 10 | +++ (≥350) | 3 to 10 | Cc1ccccc1S(=O)(=O)NC(=O)C1CCc2c(Br)cccc21 (stereo not drawn) [II-33] |
| < 50 | 3 to 10 | ++ (≥150 and <350) | 3 to 10 | Cc1ccccc1S(=O)(=O)NC(=O)C1CCc2c(C3=CCOCC3)cccc21 (stereo not drawn) [II-34] |
| 50 to 150 | 3 to 10 | ++ (≥150 and <350) | 3 to 10 | Cc1ccccc1S(=O)(=O)NC(=O)C1CCc2c(C3CCC3)cccc21 (stereo not drawn) [II-35] |
| < 50 | 3 to 10 | ++ (≥150 and <350) | 3 to 10 | COc1cccc2c1CCC2C(=O)NS(=O)(=O)c1ccccc1C(F)(F)F (stereo not drawn) [II-37] |
| < 50 | ≥ 10 | ++ (≥150 and <350) | 3 to 10 | COc1cccc2c1CCC2C(=O)NS(=O)(=O)c1ccccc1F (stereo not drawn) [II-38] |
| < 50 | 3 to 10 | ++ (≥150 and <350) | 3 to 10 | COc1cccc2c1CCC2C(=O)NS(=O)(=O)c1ccccc1Br (stereo not drawn) [II-39] |
| 50 to 150 | 3 to 10 | ++ (≥150 and <350) | 3 to 10 | Cc1ccccc1S(=O)(=O)NC(=O)C1CCc2c(OC(C)C)cccc21 (stereo not drawn) [II-40] |
| 50 to 150 | 3 to 10 | +++ (≥350) | 3 to 10 | COc1ccc(Br)c2c1CCC2C(=O)NS(=O)(=O)c1ccccc1C (stereo not drawn) [II-41] |
| 50 to 150 | 3 to 10 | ++ (≥150 and <350) | 3 to 10 | COc1cc(-c2cccc3c2CCC3C(=O)NS(=O)(=O)c2ccccc2C)ccn1 (stereo not drawn) [II-42] |
| 50 to 150 | 3 to 10 | ++ (≥150 and <350) | 3 to 10 | COc1cccc2c1CCCC2C(=O)NS(=O)(=O)c1cccc2cccnc12 (stereo not drawn) [II-43] |
| 50 to 150 | 3 to 10 | +++ (≥350) | 3 to 10 | COc1cccc2c1CC(C(=O)NS(=O)(=O)c1cccc3ccccc13)C2 (stereo not drawn) [II-48] |
| 50 to 150 | 3 to 10 | +++ (≥350) | 3 to 10 | COc1ccc2c(c1OC)CCCC2C(=O)NS(=O)(=O)c1cccc2ccccc12 (stereo not drawn) [II-51] |
| < 50 | ≥ 10 | + (<150) | ≥ 10 | CCC1(C(=O)NS(=O)(=O)c2ccccc2OC)CCc2c(Cl)cccc21 (stereo not drawn) [II-55] |
| < 50 | 3 to 10 | ++ (≥150 and <350) | < 3 | O=C(NS(=O)(=O)c1cccc2ccccc12)C1CCc2ccccc21 (stereo not drawn) [II-68] |
| ≥ 150 | 3 to 10 | +++ (≥350) | < 3 | O=C(NS(=O)(=O)c1cccc2ccccc12)C1CCc2c(Br)cccc21 (stereo not drawn) [II-75] |
